Tests used:
Assay in all cases: Kinase Inhibition Assay
[1] = target: Dual specificity protein kinase CLK1 (Homo sapiens, UniProt P49759)
[2] = target: Dual specificity protein kinase CLK2 (Homo sapiens, UniProt P49760)
[3] = target: Dual specificity protein kinase CLK3 (Homo sapiens, UniProt P49761)
[4] = target: Dual specificity tyrosine-phosphorylation-regulated kinase 1A (Homo sapiens, UniProt Q13627)

Chain of Dual specificity protein kinase CLK1 (P49759 whole entry): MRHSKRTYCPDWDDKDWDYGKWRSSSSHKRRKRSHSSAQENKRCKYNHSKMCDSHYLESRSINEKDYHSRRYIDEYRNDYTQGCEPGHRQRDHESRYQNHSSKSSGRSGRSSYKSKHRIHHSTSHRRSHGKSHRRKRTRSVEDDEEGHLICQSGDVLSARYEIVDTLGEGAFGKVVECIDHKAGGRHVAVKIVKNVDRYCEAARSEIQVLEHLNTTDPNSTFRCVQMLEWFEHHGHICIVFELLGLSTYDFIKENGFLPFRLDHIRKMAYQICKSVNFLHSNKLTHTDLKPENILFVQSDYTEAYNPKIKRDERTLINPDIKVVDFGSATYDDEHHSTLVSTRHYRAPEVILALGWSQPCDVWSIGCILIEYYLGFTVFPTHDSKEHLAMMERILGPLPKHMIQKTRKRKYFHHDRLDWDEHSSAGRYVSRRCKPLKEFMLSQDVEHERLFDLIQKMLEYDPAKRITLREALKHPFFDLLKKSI
Chain of Dual specificity protein kinase CLK2 (P49760 whole entry): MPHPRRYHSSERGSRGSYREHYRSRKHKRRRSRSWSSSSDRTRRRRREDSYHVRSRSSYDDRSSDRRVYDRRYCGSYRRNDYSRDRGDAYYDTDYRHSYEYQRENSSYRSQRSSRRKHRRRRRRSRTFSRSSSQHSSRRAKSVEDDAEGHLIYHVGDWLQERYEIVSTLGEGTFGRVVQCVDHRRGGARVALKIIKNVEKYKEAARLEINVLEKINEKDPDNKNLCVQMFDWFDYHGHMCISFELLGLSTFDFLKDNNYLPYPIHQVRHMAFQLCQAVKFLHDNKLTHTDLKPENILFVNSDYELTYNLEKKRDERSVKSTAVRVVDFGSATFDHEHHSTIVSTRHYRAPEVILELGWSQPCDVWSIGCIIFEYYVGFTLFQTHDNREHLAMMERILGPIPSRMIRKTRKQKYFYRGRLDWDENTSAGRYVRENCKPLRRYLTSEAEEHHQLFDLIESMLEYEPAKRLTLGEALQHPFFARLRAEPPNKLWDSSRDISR
Chain of Dual specificity protein kinase CLK3 (P49761 as listed by the source): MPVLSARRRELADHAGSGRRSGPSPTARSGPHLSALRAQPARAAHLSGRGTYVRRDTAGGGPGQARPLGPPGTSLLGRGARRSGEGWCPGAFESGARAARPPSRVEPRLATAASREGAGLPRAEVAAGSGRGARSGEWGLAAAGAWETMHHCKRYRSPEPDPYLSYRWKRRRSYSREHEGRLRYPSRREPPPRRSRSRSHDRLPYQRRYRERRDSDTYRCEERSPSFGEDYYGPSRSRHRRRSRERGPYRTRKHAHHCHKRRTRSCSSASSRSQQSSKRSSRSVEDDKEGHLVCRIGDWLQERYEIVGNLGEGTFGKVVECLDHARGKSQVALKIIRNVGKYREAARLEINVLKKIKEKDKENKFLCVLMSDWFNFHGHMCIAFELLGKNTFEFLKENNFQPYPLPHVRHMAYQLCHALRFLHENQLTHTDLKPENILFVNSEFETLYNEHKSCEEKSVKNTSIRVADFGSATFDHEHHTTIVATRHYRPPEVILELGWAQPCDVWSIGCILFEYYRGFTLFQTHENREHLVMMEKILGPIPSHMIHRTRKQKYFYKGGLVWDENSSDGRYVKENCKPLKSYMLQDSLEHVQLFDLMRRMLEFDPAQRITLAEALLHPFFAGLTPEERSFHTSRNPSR

IC50 [1] | IC50 [2] | IC50 [3] | IC50 [4] | SMILES
51 nM | 68 nM | 346 nM | 260 nM | Cc1nc2ccc3sc(NC(=O)c4ccc5ncsc5c4)nc3c2s1 [3A5]
277 nM | 174 nM | > 3000 nM | 334 nM | CSc1nc2ccc3nc(NC(=O)c4ccco4)sc3c2s1 [5E4]
273 nM | 127 nM | > 3000 nM | 213 nM | CSc1nc2ccc3nc(NC(=O)c4ccc(S(=O)(=O)N5CCOCC5)cc4)sc3c2s1 [5F4]
390 nM | 553 nM | > 3000 nM | – | O=C1N=C(NCc2cccs2)S/C1=C/c1ccc2ncccc2c1 [NR9]
